Measurements reported in patent US11512087B2, “BRK inhibitory compound” (priority 2015, dated 2022).

Experiments:
Syk kinase = Syk kinase (Homo sapiens (Human), UniProt P43405); test: Syk inhibitory activity (mobility shift, QuickScout Screening Assist MSA); assay type: biochemical; conditions: read-out: Syk inhibitory activity (Inhibition rate at 1 μM of compound)
Protocol: The compound of the present invention was dissolved in DMSO to prepare a solution with a concentration of 100 times the test concentration of 1 μmol/L. The solution was further diluted 25-fold with Assay Buffer (20 mmol/L HEPES, 0.01% Triton X-100, 2 mmol/L DTT, pH 7.5) to give a test substance solution. With regard to a positive control substance (Staurosporine), a solution of the positive control substance was prepared in a similar manner.
Five microliters of a test substance solution with a concentration of four times prepared by using Assay Buffer, 5 μL of a solution of a substrate (Blk/Lyntide)/ATP/a metal (Mg) with a concentration of four times and 10 μL of a solution of Syk kinase with a concentration of two times were mixed in a well of a 384-well plate made of polypropylene, and the mixture was subjected to a reaction at room temperature for 1 hour (the final concentration of the substrate was 1,000 nmol/L, and the final concentration of ATP was 26 μmol/L). To the mixture, 60 μL of Termination Buffer (QuickScout Screening Assist MSA; Carna Biosciences, Inc.) was added to stop the reaction. The substrate peptide and the phosphorylated peptide in the reaction solution were separated, and were quantified. The kinase reaction was evaluated by a product ratio (P/(P+S)) calculated from a peak height (S) of the substrate peptide and a peak height (P) of the phosphorylated peptide.

Lck = Lck (Homo sapiens (Human), UniProt P06239); test: Lck inhibitory activity (Z'-LYTE Kinase Assay Kit-Tyr 2 Peptide, FRET); assay type: biochemical
Lck, sequence (P06239 whole entry, species assumed): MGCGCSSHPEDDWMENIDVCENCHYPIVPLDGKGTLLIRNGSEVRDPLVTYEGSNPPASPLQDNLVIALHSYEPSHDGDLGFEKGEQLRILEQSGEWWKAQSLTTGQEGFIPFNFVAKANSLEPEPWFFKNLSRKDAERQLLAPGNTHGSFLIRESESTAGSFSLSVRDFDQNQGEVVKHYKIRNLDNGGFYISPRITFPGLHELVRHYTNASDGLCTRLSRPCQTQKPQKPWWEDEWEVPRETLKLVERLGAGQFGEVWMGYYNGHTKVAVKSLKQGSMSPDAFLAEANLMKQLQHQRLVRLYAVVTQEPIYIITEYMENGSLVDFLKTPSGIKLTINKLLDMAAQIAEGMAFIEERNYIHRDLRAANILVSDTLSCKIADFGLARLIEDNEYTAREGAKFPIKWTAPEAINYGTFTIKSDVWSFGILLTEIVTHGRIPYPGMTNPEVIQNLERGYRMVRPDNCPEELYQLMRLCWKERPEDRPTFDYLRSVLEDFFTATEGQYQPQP
Protocol: The Lck activity was determined by using Fluorescence Resonance Energy Transfer (FRET) method.
A dilute solution (5 μL) of the compound of the present invention in dimethylsulfoxide (DMSO; Sigma-Aldrich Co. LLC) was added to a 96-well assay plate. In addition, Peptide/Kinase Buffer composed of DL-dithiothreitol (DTT; 2 mM), Tyr 2 Peptide (2 μM), Kinase Buffer and Lck was added to the assay plate, and the reaction solution was preincubated at 25° C. for 20 minutes. […] After incubation, Coloring Solution A (10 μL) composed of Coloring Reagent B and Coloring Buffer was added, and the reaction solution was incubated at 25° C. for 1 hour. Stop Reagent (10 μL) was added to each well such that the enzymatic reaction stopped. The fluorescent coloring of each well was measured on a fluorescent plate reader by using wavelengths of 445 nm and 520 nm. The ratio of phosphorylation was determined by a ratio of coloring at 445 nm to that at 520 nm according to the attached manual.
The inhibition rate (%) of the compound of the present invention was calculated according to the following Numerical Formula 2. Inhibition rate (%)={1−(AX−AB)/(AC−AB)}×100 [Numerical Formula 2]
AX: Ratio of phosphorylation at addition of the compound of the present invention
AB: Ratio of phosphorylation in blank
AC: Ratio of phosphorylation at addition of only DMSO

inhibition at 1 µM (Syk kinase)	IC50 (Lck)	Structure (SMILES)
0%	> 10 µM	Cc1nn(C)cc1Nc1nc(N)c2c(-c3ccc4[nH]ccc4c3)nn(C(C)C)c2n1 [Example 1, N^6-(1,3-dimethyl-1H-pyrazol-4-yl)-3-(1H-indol-5-yl)-1-isopropyl-1H-pyrazolo[3,4-d]pyrimidine-4,6-diamine]
0%	2.5 µM	CC(C)n1nc(-c2ccc(F)c3[nH]ncc23)c2c(N)nc(Nc3ccc(S(C)(=O)=O)cc3F)nc21 [Example 4-3, 3-(7-Fluoro-1H-indazol-4-yl)-N^6-[2-fluoro-4-(methylsulfonyl)phenyl]-1-isopropyl-1H-pyrazolo[3,4-d]pyrimidine-4,6-diamine]
0%	> 10 µM	CC(C)n1cc(-c2ccc(C#N)c3[nH]ncc23)c2c(N)nc(Nc3ccc(S(C)(=O)=O)cc3F)nc21 [Example 13-1, 4-(4-Amino-2-{[2-fluoro-4-(methylsulfonyl)phenyl]amino}-7-isopropyl-7H-pyrrolo[2,3-d]pyrimidin-5-yl)-1H-indazole-7-carbonitrile]
